# Laboratory results published in patent publication US6169104A, “Di-aryl ethers and their derivatives as anti-cancer agents” (Large Scale Biology Corporation, priority 1998, dated 2001).
# Experiments:
# [1] = tested on: angiogenesis induced by hFGF-B in the CAM; experiment: Chick chorioallantoic membrane (CAM) assay, 14C-proline incorporation into collagenous protein; assay type: in vivo, chick embryo; settings: for effect in the CAM assay: summary of the two experiments
# Experimental: BTO-964 [methyl 3,5-diiodo-4(4'-methoxyphenoxy) benzaldehyde], and BTO-967 [methyl 3,5-diiodo-4(4'-methoxyphenoxy)-thiobenzoate] were tested in the CAm assay. The endpoint of the CAM assay was a quantiative determination of basement membrane biosynthesis by measuring the incorporation of ^14 C-proline into Type IV collagenous protein.
# The CAM assay involves the development of live chick embryos in Petri dishes under special sterile conditions. Therefore, only limited numbers of embryos can be used for evaluation of compounds in a single experiment. BTO-964 and BTO-967 was tested in separate assays. A known angiogenesis inhibitor, 2-methoxyestradiol (2-ME), was used as the positive control, and human fibroblast growth factor (hFGF) was used to induce angiogenesis in the CAM.
# For testing, a minimum amount of acetone-methanol (1:1) was added to the test compounds for sterilization. The acetone-methanol mixture was then evaporated to dryness in a sterile hood. The compounds were dissolved in dimethyl sulfoxide (DMSO) first and then diluted with saline containing methylcellulose. The final concentrations were 2% DMSO and 0.5% methylcellulose. all test solutions were added to each CAM in […] aliquots.
# Fresh fertile eggs were incubated for three days in a standard egg incubator. On Day 3, eggs were cracked under sterile conditions and embryos were placed in 20×100 mm plastic Petri dishes and cultivated at 37° C. in an embryo incubator with a water reservoir on the bottom shelf. Air was continuously bubbled into the water reservoir by using a small pump so that the humidity in the incubator was kept constant. Observations were made daily to ensure that all embryos were healthy. Dead or unhealthy embryos were removed from the incubator immediately to avoid contamination. On Day 9, a sterile silicone ring cup was placed on each CAM and 0.5 mCi of ^14 C-proline with or without the test compound plus 2.5 ng of hFGF dissolved in saline containing 0.5% methylcellulose was delivered into each ring cup in a sterile hood. 2-ME was tested in parallel to serve as a reference compound. After addition of test materials, the embryos were returned to the incubator and cultivation continued. On Day 12, all embryos were transferred to a cold room at 4-10° C.
# Using the procedure outlined in Maragoudakis, et al., (1989) J. Pharm. Exp. Ther. 251:679-682, the embryos were placed on ice and a piece of CAM 10 mm in diameter was cut off under each ring cup and placed in a separate tube. To each tube was added 1.0 ml of phosphate-buffered saline (PBS, pH 7.3) containing 0.11 mg cycloheximide and 0.17 mg dipyridyl. The tubes were placed in a boiling water bath for 10 min and then cooled to room temperature. The PBS in each tube was discarded after centrifugation at 3000×G for 10 min. The CAM residue was washed once with 3 ml of 15% TCA and then three times with 3 ml of 5% TCA. Centrifugation was carried out as described above between each washing. At this point all non-protein bound radioactivity was removed, and the CAM containing the newly synthesized ^14 C-collagenous protein was suspended in 0.9 ml of 0.1 N NaOH and 1.1 ml of HEPES buffer at pH 7.4. The pH of the sample was neutralized with 0.8 N HCl, using phenol red as indicator.
# To digest the ^14 C-collagenous protein, 7.5 units of collagenase and 500 nmol of calcium chloride in […] of HEPES buffer was added to the above samples, and mixtures were incubated at 37° C. for 4 h. The reaction was stopped by adding 1.0 ml of 20% TCA containing 5 mg of tannic acid into each tube. After vortex mixing, the samples were centrifuged at 3000×G for 10 min. An aliquot of the clear supernatant was taken for scintillation counting to quantitate the radiolabeled tripeptides corresponding to basement membrane collagen and other collagenous materials synthesized by the CAM from ^14 C-proline. The CAM pellets in each tube were solubilized in 0.5 ml of 1.0 N NaOH by boiling in a water bath for 5 min. […]
# [2] = tested on: Human leukemia (HL60) cells; experiment: In vitro metabolism in human leukemia cells with and without rat liver S9; assay type: cell-based; settings: for effect of metabolism by S9 on activity: 4 hr incubation with vs without rat liver S9, cells counted 3 days later (FIG. 2)
# Experimental: FIG. 2 illustrates the in vitro metabolism of BTO-956, 964, 966, and 967 in human leukemia cells. In this experiments, human leukemia cells (HL60) were incubated for 4 hours in the presence of BTO-956, BTO-964, BTO-966 or BTO-967, with (closed symbols) and without (open symbols) rat liver microsome fraction S9. Following the 4 hr exposure to drug and S9, the cells were rinsed and replated at a density of 2×10^5 cells per ml, and counted 3 days later.
# To test for either of these possibilities, the compounds, i.e., BTO-956, BTO-964, BTO-966 and BTO-967, were incubated with a microsomal enzyme fraction, referred to as S9.
# Human leukemia (HL60) cells were used to evaluate drug metabolism. Exposure to the test article was performed in the presence and absence of S9, prepared from the liver of adult male rats given a single intraperitoneal injection of Arachlor 1254 (500 mg/kg). The S9 consisted of the 9000×G supernatant of liver homogenized in 0.25 M sucrose-100 mM phosphate buffer (pH 7.4) (Molecular Toxicology, Inc.). Cofactors were 1 mM NADP and 5 mM sodium isocitrate. On the day of exposure, cultures of cells, with or without the metabolism mixture, were incubated for 4 hours in RPMI containing 5% FBS and graded doses of BTO956, 964, 966, or 967. The test agents were prepared in serial dilutions from 10 mM stock solutions in DMSO yielding a dose range 100 μM, 50 μM, 25 μM, 10 μM and 5 μM concentrations and a final DMSO concentration of 1%. In each case, cells were maintained at 37° C. under 5 percent CO2 in air. The experiments were conducted in 6-well tissue culture plates (Falcon) with an initial seeding density of 2×10^6 cells per well in 2 ml aliquots. The test compounds were added immediately to the medium in duplicate cultures. Treatment solution was removed by a series of low-speed centrifugations to pellet the cells, followed by removal of the supernatant and resuspension of cells in fresh RPMI containing 10% FBS.
Compound,"% Inhibition ([1]; 8.3 μg/CAM, BTO-967 experiment) [%]","14C-Proline Incorporated into Collagenous Protein (cpm/mg protein) (mean ± S.E.) ([1]; 8.3 μg/CAM, BTO-967 experiment, control 6300 ± 696) [cpm/mg_protein]","% Inhibition ([1]; 25 μg/CAM, BTO-967 experiment) [%]","14C-Proline Incorporated into Collagenous Protein (cpm/mg protein) (mean ± S.E.) ([1]; 25 μg/CAM, BTO-967 experiment, control 6300 ± 696) [cpm/mg_protein]","% Inhibition ([1]; 75 μg/CAM, BTO-967 experiment) [%]","14C-Proline Incorporated into Collagenous Protein (cpm/mg protein) (mean ± S.E.) ([1]; 75 μg/CAM, BTO-967 experiment, control 6300 ± 696) [cpm/mg_protein]",effect in the CAM assay [1],effect of metabolism by S9 on activity [2],"% Inhibition ([1]; 8.3 μg/CAM, BTO-964 experiment) [%]","14C-Proline Incorporated into Collagenous Protein (cpm/mg protein) (mean ± S.E.) ([1]; 8.3 μg/CAM, BTO-964 experiment, control 11200 ± 829) [cpm/mg_protein]","% Inhibition ([1]; 25 μg/CAM, BTO-964 experiment) [%]","14C-Proline Incorporated into Collagenous Protein (cpm/mg protein) (mean ± S.E.) ([1]; 25 μg/CAM, BTO-964 experiment, control 11200 ± 829) [cpm/mg_protein]","% Inhibition ([1]; 75 μg/CAM, BTO-964 experiment) [%]","14C-Proline Incorporated into Collagenous Protein (cpm/mg protein) (mean ± S.E.) ([1]; 75 μg/CAM, BTO-964 experiment, control 11200 ± 829) [cpm/mg_protein]",toxicity to HL60 cells ([2]; 4 hr exposure (FIG. 2))
"COC(=S)c1cc(I)c(Oc2ccc(OC)cc2)c(I)c1 [BTO-967, methyl 3,5-diiodo-4-(4'-methoxyphenoxy)thiobenzoate]",13,5222 ± 692,3,6165 ± 1288,11,5581 ± 1182,antiangiogenic effect,activated to more cytotoxic products,–,–,–,–,–,–,–
"COc1ccc(Oc2c(I)cc(C=O)cc2I)cc1 [BTO-964, 3,5-Diiodo-4-(4'-methoxyphenoxy)benzadehyde]",–,–,–,–,–,–,antiangiogenic effect,more resistant to metabolic degradation,15,9526 ± 1492,27,8121 ± 1096,10,10076 ± 928,more toxic to HL60 cells than is BTO-956
